Experimental data from paper PMC9371265 (PLoS Pathogens, 2022).

Target: T1, PrpN (Bacillus anthracis, UniProt A0A6L7HCQ6)
T1 construct: gene GBAA_0570
T1 sequence (A0A6L7HCQ6 1-234): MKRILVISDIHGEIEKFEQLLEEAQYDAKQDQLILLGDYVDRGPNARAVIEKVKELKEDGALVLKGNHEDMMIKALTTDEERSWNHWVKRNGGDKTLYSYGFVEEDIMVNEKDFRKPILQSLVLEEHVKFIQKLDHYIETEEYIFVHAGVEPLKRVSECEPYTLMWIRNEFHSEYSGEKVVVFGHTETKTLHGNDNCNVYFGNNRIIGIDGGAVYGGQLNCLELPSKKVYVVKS

With `O=[N+]([O-])c1ccc(OP(=O)(O)O)cc1` [p-nitrophenyl phosphate] the “pNPP hydrolysis, absorbance at 405 nm” value was “determined spectrophotometrically using para-nitrophenyl phosphate-pNPP (Sigma-Aldrich) as substrate”.
